Assay [1] deals with PC-3. Nature of the assay: Antiproliferative activity against human PC3 cells assessed as growth inhibition at 30 uM by MTS assay. Type of assay: functional. The settings on record: read-out: GI. On the technique in general: Tetrazolium dyes change colour on reduction, which living cells bring about.
For a further assay, the system named is MDA-MB-231. Put plainly: Antiproliferative activity against human MDA-MB-231 cells assessed as growth inhibition by MTS assay. It counts as functional, cell-based.
A further assay relates to DU-145. Put plainly: Antiproliferative activity against human DU145 cells assessed as growth inhibition by MTS assay. Type of assay: functional, cell-based.
The subject of assay [2] is PC-3. Put plainly: Antiproliferative activity against human PC3 cells assessed as growth inhibition by MTS assay. It counts as functional, cell-based.
Assay [3] addresses T1, Tubulin (Sus scrofa) (UniProt P02554+P02550). Nature of the assay: Induction of purified porcine brain tubulin polymerization at 50 uM by spectrophotometric analysis.
Assay [4] addresses T1, Tubulin (Sus scrofa). Put plainly: Induction of purified porcine brain tubulin polymerization assessed as microtubule-stabilization at 50 uM by spectrophotometric analysis.

The source made the active and inactive calls. The calls are words filed in the database; no cut-off is given here.

T1 sequence (P02550 whole entry, looked up): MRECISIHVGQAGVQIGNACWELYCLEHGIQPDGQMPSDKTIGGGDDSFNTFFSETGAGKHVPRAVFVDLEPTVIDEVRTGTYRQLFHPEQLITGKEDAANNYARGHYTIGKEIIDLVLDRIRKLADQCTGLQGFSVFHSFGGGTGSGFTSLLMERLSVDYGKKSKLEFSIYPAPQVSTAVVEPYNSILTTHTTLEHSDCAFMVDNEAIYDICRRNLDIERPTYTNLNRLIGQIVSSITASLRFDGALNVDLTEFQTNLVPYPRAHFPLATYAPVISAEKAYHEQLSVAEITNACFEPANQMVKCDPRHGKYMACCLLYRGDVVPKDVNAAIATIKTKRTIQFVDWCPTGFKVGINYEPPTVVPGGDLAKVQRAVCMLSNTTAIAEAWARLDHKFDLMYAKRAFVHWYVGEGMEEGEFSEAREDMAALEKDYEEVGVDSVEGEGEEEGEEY
T1 sequence (P02554 whole entry, looked up): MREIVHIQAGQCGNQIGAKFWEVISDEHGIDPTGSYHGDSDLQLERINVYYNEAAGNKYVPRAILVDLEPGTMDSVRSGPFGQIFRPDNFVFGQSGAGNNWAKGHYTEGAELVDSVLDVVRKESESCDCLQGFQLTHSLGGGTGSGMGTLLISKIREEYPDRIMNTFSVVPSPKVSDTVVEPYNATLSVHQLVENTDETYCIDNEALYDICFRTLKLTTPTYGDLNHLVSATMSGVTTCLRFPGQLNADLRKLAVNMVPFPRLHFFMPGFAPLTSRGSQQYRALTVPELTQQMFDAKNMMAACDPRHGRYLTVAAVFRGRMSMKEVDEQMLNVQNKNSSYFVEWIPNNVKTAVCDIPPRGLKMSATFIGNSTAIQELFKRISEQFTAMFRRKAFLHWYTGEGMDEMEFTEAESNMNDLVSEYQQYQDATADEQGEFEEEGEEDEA

Consider `O=C1c2ccccc2C(=O)N1c1ccc(Cl)c(Cl)c1`, for which, in the assay with PC-3 [1], the inhibition of growth at 30 µM is less than 10%.
In the case of `Cc1ccc2c(c1)C(=O)N(c1c(C(C)C)cccc1C(C)C)C2=O`, the values for the IC50 in the assay with MDA-MB-231, with DU-145 and in the assay with PC-3 [2] were 4.85 µM, 6.62 µM and 8.02 µM, respectively.
Turning to `CC(C)c1cccc(C(C)C)c1N1C(=O)c2cccc([N+](=O)[O-])c2C1=O`, the IC50 in the assay with MDA-MB-231 was 37.7 µM; in the assay with DU-145 it was greater than 50 µM; in the assay with PC-3 [2] it was 38.3 µM.
With `CC(C)c1cccc(C(C)C)c1N1C(=O)c2ccccc2C1=O`, the half-maximal inhibitory concentration (IC50) amounted to 4.12 µM with MDA-MB-231, 7.12 µM in the assay with DU-145 and 4.01 µM with PC-3 [2].
Take `CC(C)c1cccc(C(C)C)c1N1C(=O)c2cccc(O)c2C1=O`: on Tubulin (Sus scrofa) [3], the outcome was Active. Besides, the IC50 turned out to be 15 µM in the assay with MDA-MB-231, 45.6 µM in the assay on DU-145 and 45.2 µM with PC-3 [2].
Consider `Cc1cccc(C)c1N1C(=O)c2ccccc2C1=O`, for which the inhibition of growth at 30 µM in the assay on PC-3 [1] was less than 10%.
Same read-out and setting: then `O=C1c2ccccc2C(=O)N1c1ccc(Cl)cc1Cl`, with less than 10%.
In the case of `CCc1cccc(CC)c1N1C(=O)c2ccc(O)cc2C1=O`, the outcome at Tubulin (Sus scrofa) [4] was Active. Besides, the IC50 is 29.2 µM in the assay on MDA-MB-231, 45.9 µM in the assay with DU-145 and greater than 50 µM in the assay on PC-3 [2].
Turning to `COC(=O)c1ccc2c(c1)C(=O)N(c1c(C(C)C)cccc1C(C)C)C2=O`, the figures for the half-inhibitory concentration (IC50) in the assay with MDA-MB-231, in the assay with DU-145 and in the assay on PC-3 [2] were 6.87 µM, 24.6 µM and 21.8 µM, respectively.
For `CC(C)c1cccc(C(C)C)c1N1C(=O)c2ccc(N)cc2C1=O`, at Tubulin (Sus scrofa) [3], the outcome was Active. The results for the concentration for half-maximal inhibition (IC50) in the assay with MDA-MB-231, in the assay with DU-145 and with PC-3 [2] were 7.24 µM, 3.94 µM and 2.07 µM, respectively.
In the case of `CC(C)c1cccc(C(C)C)c1N1C(=O)c2cccc(N)c2C1=O`, the IC50 in the assay with MDA-MB-231 turned out to be 7.24 µM; in the assay on DU-145, 8.14 µM; with PC-3 [2], 6.26 µM.
On the same counts, the results for `CC(C)c1cccc(C(C)C)c1N1C(=O)c2ccc(C(=O)O)cc2C1=O` are 5.56 µM, 9.16 µM and 6.4 µM.
Consider `Cc1cccc(C)c1N1C(=O)c2ccc(O)cc2C1=O`, for which the outcome at Tubulin (Sus scrofa) [4] was inactive. The half-maximal inhibitory concentration (IC50) in the assay on MDA-MB-231, in the assay with DU-145 and with PC-3 [2] was greater than 50 µM throughout.
Consider `O=C1c2ccccc2C(=O)N1c1cc(Cl)cc(Cl)c1`, for which the inhibition of growth at 30 µM with PC-3 [1] is less than 10%.
Still for that read-out and setting: the same measure for `Cc1ccc(N2C(=O)c3ccccc3C2=O)cc1C`: less than 10%.
Regarding `O=C1c2ccccc2C(=O)N1c1c(Br)cccc1Br`, the inhibition of growth at 30 µM in the assay with PC-3 [1] was determined as 21.9%.
Still for that read-out and setting: the same measure for `O=C1c2ccccc2C(=O)N1c1cccc2ccccc12`: less than 10%; for `O=C1c2ccccc2C(=O)N1c1cc(Cl)ccc1Cl`: less than 10%.
`CC(C)c1cccc(C(C)C)c1N1C(=O)c2ccc([N+](=O)[O-])cc2C1=O`: the IC50 was greater than 50 µM in the assay with MDA-MB-231 and 15 µM in the assay on DU-145.
In the case of `CC(C)c1cccc(C(C)C)c1N1C(=O)c2ccc(Cl)cc2C1=O`, the values for the IC50 in the assay on MDA-MB-231, in the assay with DU-145 and with PC-3 [2] were 10.6 µM, 14.1 µM and 5.52 µM, respectively.
With `COc1ccc(N2C(=O)c3ccccc3C2=O)cc1OC`, in the assay on PC-3 [1], the inhibition of growth at 30 µM came to 10.2%.
Still for that read-out and setting: the same measure for `O=C1c2ccccc2C(=O)N1c1c(Cl)cccc1Cl`: less than 10%.
In the case of `CC(C)c1cccc(C(C)C)c1N1C(=O)c2ccc(O)cc2C1=O`, the result on Tubulin (Sus scrofa) [4] and on Tubulin (Sus scrofa) [3] was Active. Further, the IC50 in the assay on MDA-MB-231 was found to be 5.35 µM; in the assay with DU-145, 5.74 µM; in the assay with PC-3 [2], 8.3 µM. The inhibition of growth at 30 µM in the assay with PC-3 [1] was greater than 90%.
For the compound `O=C1c2ccccc2C(=O)N1c1ccc([N+](=O)[O-])c(C(F)(F)F)c1`, the inhibition of growth at 30 µM in the assay with PC-3 [1] was less than 10%.
Same read-out and setting: then `O=C1c2ccccc2C(=O)N1c1c(F)cccc1F`, with less than 10%; and `O=C1c2ccccc2C(=O)N1c1ccc2ccccc2c1`, with 16%.

One may read the IC50 as the concentration at which inhibition is half-maximal.

Source of the values: ChEMBL document CHEMBL3091346, “Structure-activity relationship studies of thalidomide analogs with a taxol-like mode of action” (Bioorg Med Chem Lett, 2013).
